# Source: ChEMBL document CHEMBL1153470, “Design, synthesis, and biological evaluation of 16-substituted 4-azasteroids as tissue-selective androgen receptor modulators (SARMs)” (J Med Chem, 2009)
# Experiments:
# [1] = Half life in Beagle dog at 0.2 mg/kg, iv; format: ADME, organism-based, Canis lupus familiaris; design: dose 0.2 mg/kg, route intravenous; details: in vivo
# [2] = Clearance in Beagle dog at 0.2 mg/kg, iv; format: ADME, organism-based, Canis lupus familiaris; design: dose 0.2 mg/kg, route intravenous; details: in vivo
# [3] = AUC in orchidectomized Sprague-Dawley rat at 10 mg/kg, sc; format: ADME, organism-based; design: dose 10 mg/kg, route subcutaneous; details: male, plasma
# [4] = AUC in orchidectomized Sprague-Dawley rat at 30 mg/kg, sc; format: ADME, organism-based; design: dose 30 mg/kg, route subcutaneous; details: male, plasma
# [5] = Aqueous solubility at pH 2; format: physicochemical
# [6] = Oral bioavailability in Beagle dog at 1 mg/kg; format: ADME, organism-based, Canis lupus familiaris; details: in vivo
# [7] = AUC in ovariectomized Sprague-Dawley rat at 10 mg/kg, sc; format: ADME, organism-based; design: dose 10 mg/kg, route subcutaneous; details: female, plasma
# [8] = in vivo; details: female, Sprague-Dawley, rat, plasma, sc, 3 mg/kg
# [9] = in vivo; details: male, Sprague-Dawley, rat, plasma, sc, 3 mg/kg
# [10] = AUC in ovariectomized Sprague-Dawley rat at 1 mg/kg, sc; details: female, plasma
SMILES,half-life [1] [h],clearance [2] [mL/min/kg],also measured
CN1C(=O)C=C[C@]2(C)[C@H]3CC[C@]4(C)[C@@H](O)/C(=C/c5cccc(F)c5)C[C@H]4[C@@H]3CC[C@@H]12,4.9,15.2,–
COc1ncc(/C=C2\C[C@H]3[C@@H]4CC[C@H]5N(C)C(=O)C=C[C@]5(C)[C@H]4CC[C@]3(C)[C@H]2O)cn1,12.7,4.6,–
CN1C(=O)C=C[C@]2(C)[C@H]3CC[C@]4(C)[C@@H](O)/C(=C/c5cc(F)cc(F)c5)C[C@H]4[C@@H]3CC[C@@H]12,9.1,6.8,–
CNc1ncc(/C=C2\C[C@H]3[C@@H]4CC[C@H]5N(C)C(=O)C=C[C@]5(C)[C@H]4CC[C@]3(C)[C@H]2O)cn1,10.9,0.8,–
COC[C@@H]1C[C@H]2[C@@H]3CC[C@H]4N(C)C(=O)C=C[C@]4(C)[C@H]3CC[C@]2(C)[C@H]1O,1.5,11,–
C[C@@H]1C[C@H]2[C@@H]3CC[C@H]4N(C)C(=O)C=C[C@]4(C)[C@H]3CC[C@]2(C)[C@H]1O,1,20.2,–
CN1C(=O)C=C[C@]2(C)[C@H]3CC[C@]4(C)[C@@H](O)/C(=C/c5cncnc5)C[C@H]4[C@@H]3CC[C@@H]12,2.3,15.3,AUC [3]: 4.3 µM·h; AUC [4]: 16.2 µM·h; solubility [5]: 570 µg/mL; bioavailability [6]: 51%; AUC [7]: 17 µM·h
CN1C(=O)C=C[C@]2(C)[C@H]3CC[C@]4(C)[C@@H](O)CC[C@H]4[C@@H]3CC[C@@H]12,0.7,32.3,–
CN1C(=O)C=C[C@]2(C)[C@H]3CC[C@]4(C)[C@@H](O)[C@H](Cc5cccc(F)c5)C[C@H]4[C@@H]3CC[C@@H]12,3,22,–
C[C@]12CCC(=O)C[C@@H]1CC[C@@H]1[C@@H]2CC[C@]2(C)[C@@H](O)CC[C@@H]12 [STANOLONE],–,–,AUC [8]: 0.02 µM·h; AUC [9]: 0.08 µM·h
Cc1ncc(/C=C2\C[C@H]3[C@@H]4CC[C@H]5N(C)C(=O)C=C[C@]5(C)[C@H]4CC[C@]3(C)[C@H]2O)cn1,18.7,1.5,solubility [5]: 230 µg/mL; AUC [10]: 17 µM·h
C/C=C1\C[C@H]2[C@@H]3CC[C@H]4N(C)C(=O)C=C[C@]4(C)[C@H]3CC[C@]2(C)[C@H]1O,1,42.8,–
CN1C(=O)C=C[C@]2(C)[C@H]3CC[C@]4(C)[C@@H](O)/C(=C/c5cccnc5)C[C@H]4[C@@H]3CC[C@@H]12,17.1,5,bioavailability [6]: 21%
